This data set deals with NNR5 cells. The experiment in a line: Viability of NNR5 cells transfected with Karet constructs with or without TrkA. It counts as cell-based, rat. The protocol: FIG. 5f is a viable cell count histogram depicting that the pro-apoptotic effect of Karet is TrkA dependent. NNR5 cells were electroporated with GFP with or without TrkA construct, or Karet with or without TrkA. Cells were incubated for 12 hours after electroporation and results are presented as percent of control (NNR5 transfected with GFP only, mean±SD, n=4, * p<0.05).
FIGS. 20a-q are immunochemistry (FIGS. 20a-p) and FACS (FIG. 20q) analyses of myristylated constructs of Karet, PTB and the non-PTB domain in PC12 (FIGS. 20a-p) or NNR5 (FIG. 20q) cells. Myristylated constructs of Karet (FIGS. 20e-h), PTB (FIGS. 20i-l) and the non-PTB domain (FIGS. 20m-p) or non-myristylated construct of Karet (FIGS. 20a-d) were transfected to PC12 cells and immunochemistry of the expressed constructs was performed using HA-antibody (FIG. 20a), the PTB-antibody (FIGS. 20e, i and m) or Lamin (a nuclear membrane protein)-antibody (FIGS. 20b, f, j, and n). Merged images of the two-color immunocytochemistry are shown in FIG. 20d (for anti-Ha and anti-lamin antibodies) or FIGS. 20h l, and p (for anti-PTB and anti-lamin antibodies). Note the cytoplasmic expression of non-myristylated Karet (FIG. 20a) as compared to the nuclear membrane expression of lamin (FIG. 20b). […] NNR5 cells were transfected with pcDNA3, Ha Karet and TrkA, Myr-Karet, Myr-PTB or Myr-non PTB constructs and the effect on cell viability was determined using calcein (the dead/Live kit). […]
FIGS. 22a-b are histograms depicting the effect of co-transfection of Karet and TrkA on cell death in Hek (FIG. 22a) or NNR5 (FIG. 22b) cells. […] Viability of the cells was measured 24 hours after transfection by XTT. *p<0.05; FIG. 22b—NNR5 cells were co-transfected with Karet or control vector and TrkA, TrkB and TrkC. Cells were analyzed by FACS 24 hours after transfection using the dead/live kit. ** p<0.001.
Viability of cells was evaluated using the Live/dead viability/cytotoxicity kit (Cat. No. L-3224), Molecular Probes, Inc., Eugene, Oreg., USA, according to manufacturer's instructions.

For “Karet: full-length mouse Karet protein (SEQ ID NO:1), PTB domain protein, expressed from pcDNA3 with HA tag”, the cell viability result (NNR5 (TrkA deficient), Karet without TrkA) is recorded as “no reduction in cell viability”. Further, the “reduction in cell survival” value (NNR5 co-transfected with Karet and TrkA, 12 hours after electroporation, percent of control) was “about 20%”. Moreover, the decrease in viability (NNR5 co-transfected with Karet and TrkA, FACS dead/live kit, 24 hours after transfection) was determined as 13%.
